A word on the IC50: it is the midpoint of a concentration-inhibition curve.

For the test, the target named is WT HIV-1 protease (Human immunodeficiency virus type 1 group M subtype B (isolate HXB2) (HIV-1), UniProt P04585). The test is described as follows: Assay for inhibition of microbial expressed HIV protease (Procedure A, peptide substrate, HPLC fluorescence detection). It is filed as biochemical. As to conditions: WT HIV-1 protease 10 pM, substrate 400 micromolar, pH 5.5, 30 min preincubation, 1 hour at 30° C.; read-out: Enzyme inhibition IC50. The essentials:
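E. coli-expressed enzyme preincubated 30 min at room temperature with compound in 50 mM sodium acetate pH 5.5, 100 mM NaCl, 0.1% BSA. Reaction ran 1 h at 30° C with 400 micromolar Val-Ser-Gln-Asn-(betanaphthyl)Ala-Pro-Ile-Val substrate and 10 picomolar protease. After phosphoric acid quench, product was measured by C18 HPLC with fluorescence (ex 270/em 330 nm).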
Regarding `COC(=O)N[C@H](C(=O)N[C@H](c1ccc([C@@H](CO)N(CCC(C)(C)C)S(=O)(=O)c2ccc(-n3cnnn3)cc2)s1)C(F)(F)F)C(c1ccccc1)c1ccccc1` [Example 111, N-((1S)-1-{5-[(1R)-1-((3,3-dimethylbutyl){[4-(1H-tetrazol-1-yl)phenyl]sulfonyl}amino)-2-hydroxyethyl]-2-thienyl}-2,2,2-trifluoroethyl)-Nα-(methoxycarbonyl)-β-phenyl-L-phenylalaninamide], the IC50 stood at 19.3 nM. For the molecule `COC(=O)N[C@H](C(=O)N[C@H](c1ccc([C@@H](CO)N(CCC(C)(C)C)S(=O)(=O)c2ccc(-n3nccn3)cc2)s1)C(F)(F)F)C(c1ccccc1)c1ccccc1` [Example 112], the concentration for half-maximal inhibition (IC50) was found to be 73.5 nM.

In the case of `COC(=O)N[C@H](C(=O)N[C@H](c1ccc([C@@H](CO)N(CCC(C)(C)C)S(=O)(=O)c2ccc(-n3ccnn3)cc2)s1)C(F)(F)F)C(c1ccccc1)c1ccccc1` [Example 113], the IC50 was 25.9 nM. The same measure for `COC(=O)N[C@H](C(=O)N[C@H](c1ccc([C@@H](CO)N(CCC(C)(C)C)S(=O)(=O)c2ccc(-c3ccno3)cc2)s1)C(F)(F)F)C(c1ccccc1)c1ccccc1` [Example 114, N-{(1S)-1-[5-((1R)-1-{(3,3-dimethylbutyl)[(4-isoxazol-5-ylphenyl)sulfonyl]amino}-2-hydroxyethyl)-2-thienyl]-2,2,2-trifluoroethyl}-Nα-(methoxycarbonyl)-β-phenyl-L-phenylalaninamide]: 0.77 nM; for `COC(=O)N[C@H](C(=O)N[C@H](c1ccc([C@@H](CO)N(CCC(C)(C)C)S(=O)(=O)c2ccc(N)c(Cl)c2)s1)C(F)(F)F)C(c1ccccc1)c1ccccc1` [Example 116, N-[(1S)-1-(5-{(1R)-1-[[(4-amino-3-chlorophenyl)sulfonyl](3,3-dimethylbutyl)amino]-2-hydroxyethyl}-2-thienyl)-2,2,2-trifluoroethyl]-Nα-(methoxycarbonyl)-β-phenyl-L-phenylalaninamide]: 3.54 nM. The same measure for `COC(=O)N[C@H](C(=O)N[C@H](c1ccc([C@@H](CO)N(CCC(C)(C)C)S(=O)(=O)c2ccc(N)cc2Cl)s1)C(F)(F)F)C(c1ccccc1)c1ccccc1` [Example 117, N-[(1S)-1-(5-{(1R)-1-[[(4-amino-2-chlorophenyl)sulfonyl](3,3-dimethylbutyl)amino]-2-hydroxyethyl}-2-thienyl)-2,2,2-trifluoroethyl]-Nα-(methoxycarbonyl)-β-phenyl-L-phenylalaninamide]: 0.47 nM. As for `COC(=O)N[C@H](C(=O)N[C@H](c1ccc([C@@H](CO)N(CCC(C)(C)C)S(=O)(=O)c2ccc3ncnn3c2)s1)C(F)(F)F)C(c1ccccc1)c1ccccc1` [Example 118, N-[(1S)-1-(5-{(1R)-1-[(3,3-dimethylbutyl)([1,2,4]triazolo[1,5-a]pyridin-6-ylsulfonyl)amino]-2-hydroxyethyl}thiophen-2-yl)-2,2,2-trifluoroethyl]-Nalpha-(methoxycarbonyl)-beta-phenyl-L-phenylalaninamide], the IC50 was 2.43 nM. As for `COC(=O)N[C@H](C(=O)N[C@H](c1ccc([C@@H](CO)N(CCC(C)(C)C)S(=O)(=O)c2cn3cc(Cl)nc3cn2)s1)C(F)(F)F)C(c1ccccc1)c1ccccc1` [Example 119, N-[(1S)-1-{5-[(1R)-1-{[(2-chloroimidazo[1,2-a]pyrazin-6-yl)sulfonyl](3,3-dimethylbutyl)amino}-2-hydroxyethyl]thiophen-2-yl}-2,2,2-trifluoroethyl]-Nα-(methoxycarbonyl)-β-phenyl-L-phenylalaninamide], the figure is 13.9 nM. The same measure for `COC(=O)N[C@H](C(=O)N[C@H](c1ccc([C@@H](CO)N(CCC(C)(C)C)S(=O)(=O)c2ccn3ncnc3c2)s1)C(F)(F)F)C(c1ccccc1)c1ccccc1` [Example 120, N-[(1S)-1-(5-{(1R)-1-[(3,3-dimethylbutyl)([1,2,4]triazolo[1,5-a]pyridin-7-ylsulfonyl)amino]-2-hydroxyethyl}thiophen-2-yl)-2,2,2-trifluoroethyl]-Nalpha-(methoxycarbonyl)-beta-phenyl-L-phenylalaninamide]: 3 nM. Regarding `COC(=O)N[C@H](C(=O)N[C@H](c1ccc([C@@H](CO)N(CCC(C)(C)C)S(=O)(=O)c2cn3ccnc3cn2)s1)C(F)(F)F)C(c1ccccc1)c1ccccc1` [Example 122, N-[(1S)-1-(5-{(1R)-1-[(3,3-dimethylbutyl)(imidazo[1,2-a]pyrazin-6-ylsulfonyl)amino]-2-hydroxyethyl}thiophen-2-yl)-2,2,2-trifluoroethyl]-Nα-(methoxycarbonyl)-β-phenyl-L-phenylalaninamide], the IC50 turned out to be 5.78 nM. As for `COC(=O)N[C@H](C(=O)NCc1ccc([C@@H](CO)N(CC(C)C)S(=O)(=O)c2ccc3ncsc3c2)s1)C(c1ccccc1)c1ccccc1` [Example 123, N-[(5-{(1R)-1-[(1,3-benzothiazol-6-ylsulfonyl)(2-methylpropyl)amino]-2-hydroxyethyl}thiophen-2-yl)methyl]-Nα-(methoxycarbonyl).-β-phenyl-L-phenylalaninamide], the figure is 6.3 nM; as for `CC(C)CN(C(CO)c1ccc(CNC(=O)C(NC(=O)c2ccccc2)C(c2ccccc2)c2ccncc2F)s1)S(=O)(=O)c1ccc2ncsc2c1` (stereo not shown) [Example 124, N-[1-[[5-[1-(1,3-benzothiazol-6-ylsulfonyl(isobutyl)amino)-2-hydroxy-ethyl]-2-thienyl]methylcarbamoyl]-2-(3-fluoro-4-pyridyl)-2-phenyl-ethyl]benzamide], 568 nM; as for `CC(C)CN(C(CO)c1ccc(CNC(=O)C(NC(=O)c2ccccc2)C(c2ccccc2)c2ccnc3ccccc23)s1)S(=O)(=O)c1ccc2ncsc2c1` (stereo not shown) [Example 125, N-[1-[[5-[1-(1,3-benzothiazol-6-ylsulfonyl(isobutyl)amino)-2-hydroxy-ethyl]-2-thienyl]methylcarbamoyl]-2-phenyl-2-(4-quinolyl)ethyl]benzamide], 409 nM. As for `CC(C)CN(C(CO)c1ccc(CNC(=O)C(NC(=O)c2ccccc2)C(c2ccccc2)c2c[nH]c3ncccc23)s1)S(=O)(=O)c1ccc2ncsc2c1` (stereo not shown) [Example 126, N-[1[[5-[1-(1,3-benzothiazol-6-ylsulfonyl(isobutyl)amino)-2-hydroxy-ethyl]-2-thienyl]methylcarbamoyl]-2-phenyl-2-(1H-pyrrolo[2,3-b]pyridin-3-yl)ethyl]benzamide], the figure is 4 nM; as for `CC(C)CN(C(CO)c1ccc(CNC(=O)C(NC(=O)c2ccccc2)C(c2ccccc2)c2cn(C)c3ccccc23)s1)S(=O)(=O)c1ccc2ncsc2c1` (stereo not shown) [Example 127, N-[1-[[5-[1-(1,3-benzothiazol-6-ylsulfonyl(isobutyl)amino)-2-hydroxy-ethyl]-2-thienyl]methylcarbamoyl]-2-(1-methylindol-3-yl)-2-phenyl-ethyl]benzamide], 8 nM; as for `CC(C)CN(C(CO)c1ccc(CNC(=O)C(NC(=O)c2ccccc2)C(c2ccccc2)c2ccccc2)s1)S(=O)(=O)c1ccc2ncsc2c1` (stereo not shown) [Example 128, N-[1-benzhydryl-2-[[5-[1-(1,3-benzothiazol-6-ylsulfonyl(isobutyl)amino)-2-hydroxy-ethyl]-2-thienyl]methylamino]-2-oxo-ethyl]benzamide], 53 nM. As for `CC(C)CN(C(CO)c1ccc(CNC(=O)C(NC(=O)c2ccccc2)C(c2ccccc2)c2cccc3ccncc23)s1)S(=O)(=O)c1ccc2ncsc2c1` (stereo not shown) [Example 129, N-[1-[[5-[1-(1,3-benzothiazol-6-ylsulfonyl(isobutyl)amino)-2-hydroxy-ethyl]-2-thienyl]methylcarbamoyl]-2-(8-isoquinolyl)-2-phenyl-ethyl]benzamide], the half-maximal inhibitory concentration (IC50) worked out at 7 nM. For `CC(C)CN(C(CO)c1ccc(CNC(=O)C(NC(=O)c2ccccc2)C(c2ccccc2)c2c[nH]nc2-c2ccccc2)s1)S(=O)(=O)c1ccc2ncsc2c1` (stereo not shown) [Example 130, N-[1-[[5-[1-(1,3-benzothiazol-6-ylsulfonyl(isobutyl)amino)-2-hydroxy-ethyl]-2-thienyl]methylcarbamoyl]-2-phenyl-2-(3-phenyl-1H-pyrazol-4-yl)ethyl]benzamide], the IC50 is 952 nM. As for `CC(C)CN(C(CO)c1ccc(CNC(=O)C(NC(=O)c2ccccc2)C(c2ccccc2)c2cn[nH]c2)s1)S(=O)(=O)c1ccc2ncsc2c1` (stereo not shown) [Example 131, N-[1-[[5-[1-(1,3-benzothiazol-6-ylsulfonyl(isobutyl)amino)-2-hydroxy-ethyl]-2-thienyl]methylcarbamoyl]-2-phenyl-2-(1H-pyrazol-4-yl)ethyl]benzamide], the figure is 79 nM; as for `CC(C)CN(C(CO)c1ccc(CNC(=O)C(NC(=O)c2ccccc2)C(c2ccccc2)c2cnc[nH]2)s1)S(=O)(=O)c1ccc2ncsc2c1` (stereo not shown) [Example 132, N-[1-[[5-[1-(1,3-benzothiazol-6-ylsulfonyl(isobutyl)amino)-2-hydroxy-ethyl]-2-thienyl]methylcarbamoyl]-2-(1H-imidazol-5-yl)-2-phenyl-ethyl]benzamide], 216 nM; as for `CC(C)CN(C(CO)c1ccc(CNC(=O)C(NC(=O)c2ccccc2)C(c2ccccc2)c2cccc3ncccc23)s1)S(=O)(=O)c1ccc2ncsc2c1` (stereo not shown) [Example 133, N-[1-[[5-[1-(1,3-benzothiazol-6-ylsulfonyl(isobutyl)amino)-2-hydroxy-ethyl]-2-thienyl]methylcarbamoyl]-2-phenyl-2-(5-quinolyl)ethyl]benzamide], 4.76 nM. As for “N-{(1S)-1-[5-((1R)-1-{(3,3-dimethylbutyl)[4-(1-methyl-1H-pyrazol-4-ylphenylsulfonyl]amino}-2-hydroxyethyl)-2-thienyl]-2,2,2-trifluoroethyl}-Nα-(methoxycarbonyl)-β-phenyl-L-phenylalaninamide [Example 115]”, the half-maximal inhibitory concentration (IC50) came to 20.9 nM.

The values above are taken from patent US9133157B2, “HIV protease inhibitors” (Merck Canada Inc., priority 2011, dated 2015).
